From paper PMC9814530, “Rapid de novo discovery of peptidomimetic affinity reagents for human angiotensin converting enzyme 2” (Communications Chemistry, 2022)
*1 amine or outer side, *2 acyl side, *3 side chain or, on linkers, in order; H or OH if unused. Where a SMILES comes first, the peptide text is derived from it. Where no end group is shown, it is not given here. [ ]: non-standard residue; d: D form. Phe(3,4-(OMe)2) = COc1ccc(C[C@H](N)C(=O)O)cc1OC; Phe(3,4-F2) = N[C@@H](Cc1ccc(F)c(F)c1)C(=O)O; Ala(4-thiazolyl) = N[C@@H](Cc1cscn1)C(=O)O; X1 = O=C(C1(c2ccccc2)CCN([*:1])CC1)[*:2]; Phe(4-NH2) = Nc1ccc(C[C@H](N)C(=O)O)cc1; Met(O2) = CS(=O)(=O)CC[C@H](N)C(=O)O; Ala(cPr) = N[C@@H](CC1CC1)C(=O)O; Hyp = O=C(O)[C@@H]1C[C@@H](O)CN1; hArg = N=C(N)NCCCC[C@H](N)C(=O)O; Cha = N[C@@H](CC1CCCCC1)C(=O)O; 4Amb = NCc1ccc(C(=O)O)cc1; β3hS = N[C@@H](CO)CC(=O)O; Orn = NCCC[C@H](N)C(=O)O; βAla = NCCC(=O)O

Columns and labels:
12ca5 = assay: BLI binding to an unrelated (off-target) protein; settings: BLI, 12ca5 at 500 nM
Protocol: Peptide binding validation was carried out using the ForteBio Octet RED96 system. The chamber temperature was kept constant at 30 °C with a plate agitation speed at 1000 rpm. Briefly, streptavidin (SA)-coated biosensor tips were dipped into 200 μL of 1.0–2.0 μM biotinylated peptide solution (in a kinetic buffer (K.B.): 1 × PBS with 0.1% BSA and 0.02% Tween-20) for peptides immobilization. Once loaded with peptides, the tips were then moved into solutions containing various concentrations (1000, 500, 250, 125, and 62.5 nM) of recombinant ACE2 protein (purchased from Sino Biological, Catalog number 10108-H08H) in the K.B. to obtain the association curve. After the 180 s association step, the tips were moved back into the K.B. to obtain the dissociation curve. Buffer-only and protein-only conditions (concentration at 1000 nM) were used as references for background subtraction. The association and dissociation curves were fitted with the ForteBio Biosystems Data Analysis Software under 5 experimental conditions (n = 5, global fitting algorithm, binding model 1:1) to calculate the apparent dissociation constant (KD). […]
4.4 The binding of ABP noncanonical peptides to an unrelated protein
N6, and N8 to an unrelated protein, 12ca5, measured by BLI at concentration
(§1) (1 picture or pasted object on this page, not shown here)

ACE2 [1] = biological target: T1, ACE2 (Homo sapiens, UniProt Q9BYF1); assay: BLI binding competition of known ACE2 binders (AngII, MLN-4760) on the ABP-ACE2 interaction; parameters: Soluble ACE2 (5 µL, 0.62 mg/mL) was mixed with 50 µL normal human serum; settings: immobilized biotinylated peptide; for inhibition of ABP binding to ACE2 by AngII: 500 nM ACE2 + 5 uM AngII (10-fold excess); for inhibition of ABP binding to ACE2 by MLN-4760: 500 nM ACE2 + 5 uM MLN-4760 (10-fold excess)
T1 sequence (Q9BYF1 18-740 limits assumed): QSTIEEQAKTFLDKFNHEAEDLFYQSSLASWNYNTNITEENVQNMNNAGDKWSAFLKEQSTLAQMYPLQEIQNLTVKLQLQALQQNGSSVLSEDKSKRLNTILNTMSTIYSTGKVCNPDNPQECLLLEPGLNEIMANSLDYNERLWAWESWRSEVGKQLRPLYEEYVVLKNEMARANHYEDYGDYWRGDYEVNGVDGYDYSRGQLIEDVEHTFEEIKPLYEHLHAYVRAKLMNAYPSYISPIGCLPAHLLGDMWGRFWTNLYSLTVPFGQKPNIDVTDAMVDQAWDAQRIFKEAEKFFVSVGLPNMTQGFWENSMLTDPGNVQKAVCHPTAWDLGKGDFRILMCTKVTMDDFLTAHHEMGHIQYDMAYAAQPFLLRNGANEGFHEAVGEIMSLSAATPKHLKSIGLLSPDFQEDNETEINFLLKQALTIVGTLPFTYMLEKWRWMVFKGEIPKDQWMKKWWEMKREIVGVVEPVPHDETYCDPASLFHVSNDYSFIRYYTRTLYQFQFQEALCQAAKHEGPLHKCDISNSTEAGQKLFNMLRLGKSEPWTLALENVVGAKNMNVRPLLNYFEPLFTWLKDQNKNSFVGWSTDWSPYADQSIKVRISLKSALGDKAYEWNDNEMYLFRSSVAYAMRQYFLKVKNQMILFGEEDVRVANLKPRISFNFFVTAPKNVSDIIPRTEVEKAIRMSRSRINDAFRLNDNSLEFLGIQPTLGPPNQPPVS

ACE2 [2] = biological target: T1, ACE2; assay: Bio-layer interferometry (BLI) binding of immobilized biotinylated peptides to ACE2; settings: BLI; for binding to ACE2 by BLI (in words): scrambled peptides tested at 250 nM ACE2; for Kd: biotinylated peptide on streptavidin tips, ACE2 1000-62.5 nM, 30 °C, global 1:1 fit, read-out: KD (dissociation constant) to ACE2
Protocol: Peptide binding validation was carried out using the ForteBio Octet RED96 system. The chamber temperature was kept constant at 30 °C with a plate agitation speed at 1000 rpm. Briefly, streptavidin (SA)-coated biosensor tips were dipped into 200 μL of 1.0–2.0 μM biotinylated peptide solution (in a kinetic buffer (K.B.): 1 × PBS with 0.1% BSA and 0.02% Tween-20) for peptides immobilization. Once loaded with peptides, the tips were then moved into solutions containing various concentrations (1000, 500, 250, 125, and 62.5 nM) of recombinant ACE2 protein (purchased from Sino Biological, Catalog number 10108-H08H) in the K.B. to obtain the association curve. After the 180 s association step, the tips were moved back into the K.B. to obtain the dissociation curve. Buffer-only and protein-only conditions (concentration at 1000 nM) were used as references for background subtraction. The association and dissociation curves were fitted with the ForteBio Biosystems Data Analysis Software under 5 experimental conditions (n = 5, global fitting algorithm, binding model 1:1) to calculate the apparent dissociation constant (KD).
Supplementary Note 4: Binding affinity measurements
4.1 BLI raw binding data of noncanonical peptides […]
affinity was reported using the kinetic fitting results ( KD is calculated by divide the […]
off rate by on rate). […] The ACE2
as §1
4.2 BLI raw binding data of canonical peptides
Supplementary Fig. 20. The BLI binding curve fitting (red lines) of ABP C1-C4 and ABP C7-C9 from Library 1 AS-MS against ACE2.
ACE2 concentration was 250 nM.

ACE2 [3] = biological target: T1, ACE2; assay: ELISA detection of ACE2 coated from 1 x PBS; type: binding; settings: ACE2 in 1 x PBS 10 pM-100 nM coated; biotinylated peptide 100 nM; streptavidin-HRP, TMB, A450
Protocol: However, we observed a decreased detection sensitivity presumably due to the decreased amount of ACE2 being immobilized on the plate with many other serum proteins present. […] The plate was incubated with ABP N1 or control peptide, followed by streptavidin-HRP and TMB substrate. Absorbance was measured at 450 nm. The experiment was performed in technical triplicates (n = 3). Each data point, the mean signal as a bar, and error bars from experimental standard deviation, and statistical significance calculated with the unpaired Student’s t-test are shown. A serial dilution of soluble ACE2 was coated onto an ELISA plate (96-well format) overnight at 4 °C. The next day, the plate was blocked with 5% BSA in 1 × PBS supplement with 0.05% Tween-20 (PBST, pH 7.4) for 2–3 h at room temperature. […] Control groups are biotinylated peptide ABP N8 and PBST alone. The supernatant was then removed, and the wells were washed with PBST (3× 200 µL). Streptavidin-HRP conjugate in PBST (0.25 µg/mL, 100 µL) was added to each well and incubated for 30 min at room temperature. The plate was PBST-washed again (3 × 200 µL) before color development with 100 µL 1-Step™ Ultra TMB-ELISA Substrate Solution (Thermo Fisher, Catalog number 34028). After 10 min, the reaction was quenched with 2.0 M sulfuric acid (100 µL). Finally, the absorbance at 450 nm was measured on a microplate reader (BioTek) for all treated wells. […]

Compound | binding to unrelated protein 12ca5 (in words) (12ca5) | binding to ACE2 by BLI (in words) (ACE2 [2]) | also measured
COc1ccc(C[C@H](NC(=O)[C@H](Cc2ccc(F)c(F)c2)NC(=O)[C@@H]2C[C@@H](O)CN2C(=O)[C@H]2CCCN2C(=O)[C@H]2CCCN2C(=O)CNC(=O)[C@H](CC2CC2)NC(=O)[C@H](Cc2cscn2)NC(=O)[C@@H](N)CC2CC2)C(=O)N[C@@H](Cc2cscn2)C(=O)NCCC(=O)NCc2ccc(C(=O)N[C@@H](CCCCN)C(N)=O)cc2)cc1OC [ABP N4] (H-[Ala(cPr)][Ala(4-thiazolyl)][Ala(cPr)]G[dP][dP][Hyp][Phe(3,4-F2)][Phe(3,4-(OMe)2)][Ala(4-thiazolyl)][βAla][4Amb]K-NH2) | minimal binding |  | binding to unrelated protein 12ca5 (in words) (12ca5; listed as N4): No apparent binding; inhibition of ABP binding to ACE2 by AngII (ACE2 [1]): not inhibited; inhibition of ABP binding to ACE2 by MLN-4760 (ACE2 [1]): completely inhibited
CS(=O)(=O)CC[C@H](NC(=O)[C@H]1CCCN1C(=O)[C@H](CCC(N)=O)NC(=O)CNC(=O)[C@H](Cc1ccc(F)c(F)c1)NC(=O)[C@H](Cc1cscn1)NC(=O)[C@@H](N)CC1CC1)C(=O)N[C@@H](CC1CCCCC1)C(=O)N[C@@H](CCC(N)=O)C(=O)N[C@@H](Cc1cscn1)C(=O)NCCC(=O)N[C@@H](Cc1cscn1)C(=O)N[C@@H](CCCCN)C(N)=O [ABP N5] (H-[Ala(cPr)][Ala(4-thiazolyl)][Phe(3,4-F2)]GQ[dP][Met(O2)][Cha]Q[Ala(4-thiazolyl)][βAla][Ala(4-thiazolyl)]K-NH2; N-terminus assumed) | No apparent binding | no binding | 
CS(=O)(=O)CC[C@H](NC(=O)[C@H](Cc1ccc(F)c(F)c1)NC(=O)[C@H](CCCN)NC(=O)[C@@H](N)CC1CC1)C(=O)N1C[C@H](O)C[C@H]1C(=O)N[C@@H](Cc1cscn1)C(=O)N1CCC[C@@H]1C(=O)N[C@@H](CCC(N)=O)C(=O)N[C@@H](Cc1ccc(F)c(F)c1)C(=O)N[C@@H](CC1CCCCC1)C(=O)N[C@@H](CC1CCCCC1)C(=O)NCCC(=O)N[C@@H](CCCCN)C(N)=O [ABP N6] (H-[Ala(cPr)][Orn][Phe(3,4-F2)][Met(O2)][Hyp][Ala(4-thiazolyl)][dP]Q[Phe(3,4-F2)][Cha][Cha][βAla]K-NH2) | minimal binding |  | binding to unrelated protein 12ca5 (in words) (12ca5; listed as N6): No apparent binding; inhibition of ABP binding to ACE2 by AngII (ACE2 [1]): not inhibited; inhibition of ABP binding to ACE2 by MLN-4760 (ACE2 [1]): not inhibited
CS(=O)(=O)CC[C@H](NC(=O)[C@H](Cc1ccc(F)c(F)c1)NC(=O)[C@H](CCS(C)(=O)=O)NC(=O)[C@H](CC1CCCCC1)NC(=O)[C@H](CC(=O)O)NC(=O)C1(c2ccccc2)CCN(C(=O)CCNC(=O)CNC(=O)[C@H]2CCCN2C(=O)[C@H](CCCCNC(=N)N)NC(=O)[C@H](Cc2cscn2)NC(=O)[C@@H](N)CC2CC2)CC1)C(=O)N[C@@H](CCCCN)C(N)=O [ABP N8] (H-[Ala(cPr)][Ala(4-thiazolyl)][hArg][dP]G[βAla][X1]D[Cha][Met(O2)][Phe(3,4-F2)][Met(O2)]K-NH2; N-terminus assumed) | No apparent binding | no binding | ELISA detection of ACE2 (in words) (ACE2 [3]): no binding
CS(=O)(=O)CC[C@H](NC(=O)C[C@H](CO)NC(=O)[C@H](CC1CC1)NC(=O)[C@@H](N)Cc1cscn1)C(=O)N[C@@H](CC1CCCCC1)C(=O)N[C@@H](Cc1cscn1)C(=O)N[C@@H](CCCN)C(=O)N[C@@H](Cc1ccc(F)c(F)c1)C(=O)N[C@@H](CCCN)C(=O)N[C@@H](CCC(N)=O)C(=O)NCC(=O)N[C@@H](Cc1ccc(N)cc1)C(=O)N[C@@H](CCCCN)C(N)=O [Scrm N1.1] (H-[Ala(4-thiazolyl)][Ala(cPr)][β3hS][Met(O2)][Cha][Ala(4-thiazolyl)][Orn][Phe(3,4-F2)][Orn]QG[Phe(4-NH2)]K-NH2; N-terminus assumed) |  | No apparent binding | 
CS(=O)(=O)CC[C@H](N)C(=O)N[C@@H](CCCN)C(=O)N[C@@H](CC1CCCCC1)C(=O)N[C@@H](Cc1ccc(F)c(F)c1)C(=O)N[C@@H](Cc1ccc(F)c(F)c1)C(=O)N[C@@H](CO)CC(=O)NCC(=O)N[C@@H](Cc1cscn1)C(=O)N[C@@H](Cc1cscn1)C(=O)N[C@@H](CC1CC1)C(=O)N[C@@H](CCC(N)=O)C(=O)N[C@@H](CCCN)C(=O)N[C@@H](CCCCN)C(N)=O [Scrm N1.2] (H-[Met(O2)][Orn][Cha][Phe(3,4-F2)][Phe(3,4-F2)][β3hS]G[Ala(4-thiazolyl)][Ala(4-thiazolyl)][Ala(cPr)]Q[Orn]K-NH2; N-terminus assumed) |  | No apparent binding | 
LHKQFGWHWFGFK-NH2 [ABP C3] |  |  | Kd (ACE2 [2]): 35 nM
LQAKPVPQFWPFK-NH2 [ABP C5] |  | no binding | 
LQKFLGERFPGWK-NH2 [ABP C6] |  | no binding | 
LQRGVFGFPYRVK-NH2 [ABP C7] |  |  | Kd (ACE2 [2]): 26 nM
LQWHPAYWFMQVK-NH2 [ABP C8] |  |  | Kd (ACE2 [2]): 36 nM
